Laboratory results taken from BindingDB's records for doi:10.1016/j.bmcl.2023.129277 (n/a, 2023).

Key:
[1] = Inhibition of PKD1 (unknown origin) assessed as inhibition constant
[2] = Inhibition of PKD1 (unknown origin)

- Ki [1]: 64 nM
- IC50 [2]: 210 nM
Compound: CN1C(=O)[C@](O)(C#Cc2cccc(-n3nc(C(N)=O)c4cccnc43)c2)[C@H]2C[C@H]21 [1-(3-(((1R,4R,5S)-4-hydroxy-2-methyl-3-oxo-2-azabicyclo[3.1.0]hexan-4-yl)ethynyl)phenyl)-1H-pyrazolo[3,4-b]pyridine-3-carboxamide]
